What follows are compounds tested against T1, Dimer of Gag-Pol polyprotein [489-587] (Human immunodeficiency virus 1, UniProt P12497) (assay: Protease Inhibition Assay). Conditions: pH 5.5; 30 °C.
T1 construct: 489-587
Method: Sensitivity of HIV-1 protease activity to protease inhibitors was determined by a peptide substrate cleavage assay. Protease products were analyzed on a reverse-phase high-pressure liquid chromatograph.
`CC(C)C[C@@H]1[C@H](OC(=O)N[C@@H](Cc2ccccc2)[C@H](O)CN2C[C@H]3CCCC[C@H]3CC2C(=O)NC(C)(C)C)CCS1(=O)=O` (stereo partly drawn) [(2R,3R)-2-(2-methylpropyl)-1,1-dioxo--thiolan-3-yl N-[(2S,3R)-4-[(4aS,8aS)-3-(tert-butylcarbamoyl)-decahydroisoquinolin-2-yl]-3-hydroxy-1-phenylbutan-2-yl]carbamate] showed an IC50 of 30 nM. `CC(C)[C@@H]1[C@H](OC(=O)N[C@@H](Cc2ccccc2)[C@H](O)CN2C[C@H]3CCCC[C@H]3CC2C(=O)NC(C)(C)C)CCS1(=O)=O` (stereo partly drawn) [(2R,3R)-1,1-dioxo-2-(propan-2-yl)--thiolan-3-yl N-[(2S,3R)-4-[(4aS,8aS)-3-(tert-butylcarbamoyl)-decahydroisoquinolin-2-yl]-3-hydroxy-1-phenylbutan-2-yl]carbamate] showed an IC50 of 3 nM. `CC[C@@H]1[C@H](OC(=O)N[C@@H](Cc2ccccc2)[C@H](O)CN2C[C@H]3CCCC[C@H]3CC2C(=O)NC(C)(C)C)CCS1(=O)=O` (stereo partly drawn) [(2R,3R)-2-ethyl-1,1-dioxo--thiolan-3-yl N-[(2S,3R)-4-[(4aS,8aS)-3-(tert-butylcarbamoyl)-decahydroisoquinolin-2-yl]-3-hydroxy-1-phenylbutan-2-yl]carbamate] showed an IC50 of 13.1 nM. `CC(C)C[C@H]1[C@@H](OC(=O)N[C@@H](Cc2ccccc2)[C@H](O)CN2C[C@H]3CCCC[C@H]3CC2C(=O)NC(C)(C)C)CCS1(=O)=O` (stereo partly drawn) [(2S,3S)-2-(2-methylpropyl)-1,1-dioxo--thiolan-3-yl N-[(2S,3R)-4-[(4aS,8aS)-3-(tert-butylcarbamoyl)-decahydroisoquinolin-2-yl]-3-hydroxy-1-phenylbutan-2-yl]carbamate] showed an IC50 of 12 nM. In the case of `CC(C)(C)NC(=O)C1C[C@@H]2CCCC[C@@H]2CN1C[C@@H](O)[C@H](Cc1ccccc1)NC(=O)O[C@H]1CCS(=O)(=O)C1` (stereo partly drawn) [(3S)-1,1-dioxo--thiolan-3-yl N-[(2S,3R)-4-[(4aS,8aS)-3-(tert-butylcarbamoyl)-decahydroisoquinolin-2-yl]-3-hydroxy-1-phenylbutan-2-yl]carbamate], the IC50 is reported as 75 nM. Work on `C[C@@H]1OCC[C@@H]1OC(=O)N[C@@H](Cc1ccccc1)[C@H](O)CN1C[C@H]2CCCC[C@H]2CC1C(=O)NC(C)(C)C` (stereo partly drawn) [(2S,3S)-2-methyloxolan-3-yl N-[(2S,3R)-4-[(4aS,8aS)-3-(tert-butylcarbamoyl)-decahydroisoquinolin-2-yl]-3-hydroxy-1-phenylbutan-2-yl]carbamate] yielded an IC50 of 52.4 nM. With `CC(C)(C)NC(=O)C1C[C@@H]2CCCC[C@@H]2CN1C[C@@H](O)[C@H](Cc1ccccc1)NC(=O)O[C@@H]1CCS(=O)(=O)C1` (stereo partly drawn) [(3R)-1,1-dioxo--thiolan-3-yl N-[(2S,3R)-4-[(4aS,8aS)-3-(tert-butylcarbamoyl)-decahydroisoquinolin-2-yl]-3-hydroxy-1-phenylbutan-2-yl]carbamate] the IC50 was 140 nM. Work on `CC(C)(C)NC(=O)C1C[C@@H]2CCCC[C@@H]2CN1C[C@@H](O)[C@H](Cc1ccccc1)NC(=O)OCCS(C)(=O)=O` (stereo partly drawn) [2-methanesulfonylethyl N-[(2S,3R)-4-[(4aS,8aS)-3-(tert-butylcarbamoyl)-decahydroisoquinolin-2-yl]-3-hydroxy-1-phenylbutan-2-yl]carbamate] yielded an IC50 of 1030 nM. In the case of `C[C@@H]1[C@H](OC(=O)N[C@@H](Cc2ccccc2)[C@H](O)CN2C[C@H]3CCCC[C@H]3CC2C(=O)NC(C)(C)C)CCS1(=O)=O` (stereo partly drawn) [hydroxyethylene isostere], the IC50 is reported as 22.3 nM. With `CC[C@H]1[C@@H](OC(=O)N[C@@H](Cc2ccccc2)[C@H](O)CN2C[C@H]3CCCC[C@H]3CC2C(=O)NC(C)(C)C)CCS1(=O)=O` (stereo partly drawn) [(2S,3S)-2-ethyl-1,1-dioxo--thiolan-3-yl N-[(2S,3R)-4-[(4aS,8aS)-3-(tert-butylcarbamoyl)-decahydroisoquinolin-2-yl]-3-hydroxy-1-phenylbutan-2-yl]carbamate] the IC50 was 5.4 nM. For `CC(C)[C@H]1[C@@H](OC(=O)N[C@@H](Cc2ccccc2)[C@H](O)CN2C[C@H]3CCCC[C@H]3CC2C(=O)NC(C)(C)C)CCS1(=O)=O` (stereo partly drawn) [hydroxyethylene isostere], the IC50 was 11 nM. For `C[C@H]1OCC[C@H]1OC(=O)N[C@@H](Cc1ccccc1)[C@H](O)CN1C[C@H]2CCCC[C@H]2CC1C(=O)NC(C)(C)C` (stereo partly drawn) [(2R,3R)-2-methyloxolan-3-yl N-[(2S,3R)-4-[(4aS,8aS)-3-(tert-butylcarbamoyl)-decahydroisoquinolin-2-yl]-3-hydroxy-1-phenylbutan-2-yl]carbamate], the IC50 was 169 nM. `C[C@H]1[C@@H](OC(=O)N[C@@H](Cc2ccccc2)[C@H](O)CN2C[C@H]3CCCC[C@H]3CC2C(=O)NC(C)(C)C)CCS1(=O)=O` (stereo partly drawn) [(2S,3S)-2-methyl-1,1-dioxo--thiolan-3-yl N-[(2S,3R)-4-[(4aS,8aS)-3-(tert-butylcarbamoyl)-decahydroisoquinolin-2-yl]-3-hydroxy-1-phenylbutan-2-yl]carbamate] showed an IC50 of 11.4 nM.

Source: BindingDB's records for doi:10.1021/jm00059a019 (Merck Research Laboratories, 1993)
